In brackets after ≈: the same amount, converted by molar mass. Several values for one entry are separate records, joined by “and”; a condition that tells them apart may be missing. Equal entries are not always repeated.
Tests used:
[1] = NO scavenging activity (sodium nitroprusside / Griess reagent); conditions: for Nitric Oxide Percentage Scavenging Activity at 25 µg/mL / Nitric Oxide Percentage Scavenging Activity at 50 µg/mL / Nitric Oxide Percentage Scavenging Activity at 100 µg/mL: mean ± SD of three parallel measurements; for IC50 (nitric oxide scavenging): NO scavenging
[2] = molecular target: urease (Canavalia ensiformis, UniProt P07374); assay: biochemical; type: biochemical; conditions: for inhibition at 25 µg/mL: read-out: Percentage inhibition at 25 µg/mL; for inhibition at 50 µg/mL: read-out: Percentage inhibition at 50 µg/mL
Chain of urease (P07374 whole entry, looked up): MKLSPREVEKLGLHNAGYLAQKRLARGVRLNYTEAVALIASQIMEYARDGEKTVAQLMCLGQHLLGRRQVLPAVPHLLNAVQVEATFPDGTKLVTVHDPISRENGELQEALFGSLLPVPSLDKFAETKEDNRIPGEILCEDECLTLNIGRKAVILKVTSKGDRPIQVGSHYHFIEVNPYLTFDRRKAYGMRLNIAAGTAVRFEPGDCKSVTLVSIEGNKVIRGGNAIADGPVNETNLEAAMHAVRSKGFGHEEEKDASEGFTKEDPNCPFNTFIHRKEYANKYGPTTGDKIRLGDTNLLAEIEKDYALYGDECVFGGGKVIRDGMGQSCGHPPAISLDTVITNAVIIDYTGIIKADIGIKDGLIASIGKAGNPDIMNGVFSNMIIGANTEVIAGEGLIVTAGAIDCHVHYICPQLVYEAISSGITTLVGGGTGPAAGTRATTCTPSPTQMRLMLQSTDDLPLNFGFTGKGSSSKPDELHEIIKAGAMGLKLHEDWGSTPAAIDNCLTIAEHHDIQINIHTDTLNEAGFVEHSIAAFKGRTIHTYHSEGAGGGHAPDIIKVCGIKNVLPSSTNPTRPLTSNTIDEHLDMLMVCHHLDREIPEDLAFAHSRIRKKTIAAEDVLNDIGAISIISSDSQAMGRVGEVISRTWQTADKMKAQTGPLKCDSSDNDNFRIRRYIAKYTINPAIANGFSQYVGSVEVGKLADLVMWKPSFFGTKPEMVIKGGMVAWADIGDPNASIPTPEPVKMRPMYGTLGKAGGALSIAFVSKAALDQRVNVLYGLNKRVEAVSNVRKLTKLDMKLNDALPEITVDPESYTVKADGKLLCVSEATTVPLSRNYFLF
Method: The newly synthesized compounds 3a–e were examined for their urease inhibition activities in vitro at 25 and 50 μg/mL concentrations. […] Thus, enzyme stops catalyzing hydrolysis and the activity of the enzyme is inhibited.
The urease inhibitory activity of the synthesized compounds 2, 3a–e, 4 was determined as follows: phosphate buffer (pH 7, 200 µL) containing 1 unit of enzyme was mixed with phosphate buffer (230 µL) and of a particular stock solution (20 µL, thiourea or the test compound). The reaction mixture was incubated at 25 °C for 5 min. After the incubation period urea stock solution (400 µL, 20 mM) was added. Calibration mixture was prepared with no urea solution. All test tubes were further incubated at 40 °C for the action of urease for 10 min. This was followed by the addition of phenol hypochlorite reagent (1150 µL). Tubes were again incubated at 56 °C for 25 min. […] The IC50 values were determined using the EZ-fit kinetic data base.

SMILES	Nitric Oxide Percentage Scavenging Activity at 25 µg/mL [1] [%]	Nitric Oxide Percentage Scavenging Activity at 50 µg/mL [1]	Nitric Oxide Percentage Scavenging Activity at 100 µg/mL [1]	IC50 [2] [µM]	inhibition at 25 µg/mL [2] [%]	inhibition at 50 µg/mL [2] [%]	IC50 (nitric oxide scavenging) [1] [µg/mL]	melting point [°C]	IC50 (urease inhibition) ([2]; urease, EZ-fit) [µg/mL]
O=C1O[C@H]([C@@H](O)CO)C(O)=C1O [Ascorbic acid, reference compound]	40.5 ± 0.01	70.50 ± 0.91%	99.5 ± 0.91%	–	–	–	–	–	–
Nc1nc2ccc(Br)cc2s1 [Compound 2, 6-Bromobenzo[d]thiazole-2-amine]	20 ± 0.004	48 ± 0.0007%	90 ± 0.007% and 90 ± 0.0007%	124	43 ± 0.0034	95 ± 0.005	57.8 (≈ 252 µM)	–	–
Cc1ccc(-c2ccc3nc(N)sc3c2)cc1 [Compound 3a, 6-p-Tolylbenzo[d]thiazole-2-amine]	24 ± 0.003	67 ± 0.009% and 56 ± 0.001%	95 ± 0.001%	113	46 ± 0.005	90.49 ± 0.002	38.19 (≈ 159 µM)	184 to 186	–
Nc1nc2ccc(-c3ccc(Cl)cc3)cc2s1 [Compound 3b, 6-(4-Chlorophenyl)benzo[d]thiazole-2-amine]	17 ± 0.006	34 ± 0.005%	66 ± 0.005%	117	39 ± 0.0012	88.19 ± 0.007	75 (≈ 288 µM)	194 to 196	–
COc1ccc(-c2ccc3nc(N)sc3c2)cc1 [Compound 3c, 6-(4-Methoxyphenyl)benzo[d]thiazole-2-amine]	31 ± 0.022	67 ± 0.002%	–	111	44 ± 0.005	86.24 ± 0.001	38.19 (≈ 149 µM)	165 to 167	–
Nc1nc2ccc(-c3cc(C(F)(F)F)cc(C(F)(F)F)c3)cc2s1 [Compound 3d, 6-(3,5-bis(Triflouromethyl)phenyl)benzo[d]thiazole-2-amine]	10 ± 0.01	23 ± 0.009%	63 ± 0.009%	79.7	43 ± 0.007	88.6 ± 0.002	83.75 (≈ 231 µM)	180 to 182	–
Nc1nc2ccc(-c3ccccc3)cc2s1 [Compound 3e, 6-Phenylbenzo[d]thiazole-2-amine]	9 ± 0.007	22 ± 0.001%	52 ± 0.001%	116	48 ± 0.005	85 ± 0.002	96.66 (≈ 427 µM)	–	–
CC(=O)Nc1nc2ccc(Br)cc2s1 [Compound 4, N-(6-Bromobenzo[d]thiazol-2-yl)acetamide]	–	–	–	112	39 ± 0.001	89 ± 0.009	–	–	–
NC(N)=S [Thiourea, reference compound]	–	–	–	–	–	–	–	–	34.65 (≈ 455 µM)

From PMC6269778, “Efficient Synthesis of 2-Amino-6-Arylbenzothiazoles via Pd(0) Suzuki Cross Coupling Reactions: Potent Urease Enzyme Inhibition and Nitric Oxide Scavenging Activities of the Products” (Molecules, 2013)
